From US20090252788A1, “Balsalazide formulations and manufacture and use thereof” (Salix Pharmaceuticals, Inc., priority 2005, published 2009)

How the values were obtained:
Type in all cases: physicochemical
[1] = Solubility of balsalazide disodium in solvents
[2] = Stability of standard and sample solutions in dissolution medium; settings: room temperature, unprotected from light
Method: Prepare the stock standard solution in duplicate. For each preparation, transfer approximately 35 mg of Balsalazide Disodium Reference Standard, accurately weighed, to a 200-mL volumetric flask. Add 150 mL of dissolution medium, swirl and briefly sonicate to dissolve the flask contents. Dilute to volume with dissolution medium and mix well. Stock Standard Preparation A should be used for analysis of dissolution samples. Prep B should be used as the standard check preparation. The stock standard preparation is stable for 4 days when stored at room temperature and unprotected from light.
For each of the stock standard preparations, pipet 5.0 mL of the stock solution into a 50-mL volumetric flask, dilute to volume with dissolution medium, and mix well. The working standard preparation is stable for 4 days when stored at room temperature and unprotected from light.
Perform USP Apparatus 2 dissolution testing on six individual capsules utilizing the dissolution conditions listed below. Immediately, filter the samples using a 0.2 μm Gelman Nylon filter or a 10-μm Vankel Full Flow filter, discarding the first 2 mL of sample. Pipet 2.0 mL of the sample filtrate into a 100-mL volumetric flask, dilute to volume with dissolution medium, and mix well (nominal concentration: 0.017 mg Balsalazide Disodium per mL). […]

[3] = Particle size distribution and specific surface area (LS 200, Small Volume Module, Fraunhofer optical model); settings: for Particle size, % < 10: 10% of volume below this size; for Particle size, % < 25: 25% of volume below this size; for Particle size, % < 50: 50% of volume below this size; for Particle size, % < 75: 75% of volume below this size; for Particle size, % < 100: 100% of volume below this size; for Mean particle size (volume statistics, arithmetic) / Median particle size (volume statistics, arithmetic) / Specific Surf. Area: calculations from 0.375 μm to 2000 μm
Source text: FIG. 2 depicts and the data below tabulate for Sample 1 the arithmetic statistics describing surface area, particle size, and cumulative volume characteristics for one lot of drug substance (feed material). The particle size distribution for this lot is depicted in FIG. 2.
Table 11 A-D tabulates the arithmetic statistics describing surface area, particle size, and cumulative volume characteristics for three lots of drug substance (feed material). The particle size distributions for these lots are depicted in FIG. 7. […] Of these three lots of drug substance, 100% of the particles are less than 83.89 μm, 373.1 μm, and 69.61 μm, respectively.
Table 12 tabulates the arithmetic statistics describing surface area, particle size, and cumulative volume characteristics for three lots of drug product (encapsulated granulation samples) that were manufactured with the three lots of drug substance (feed material) as depicted in FIG. 7. […] Of these three lots of drug product, 100% of the granules are less than 1660 μm, 2000 μm, and 1512 μm, respectively. The particle size distributions for these three lots are depicted in FIG. 8.

[4] = Particle Diameter (Lower) 0.375 μm
[5] = Particle Diameter (Lower) 0.656 μm
[6] = Particle Diameter (Lower) 1.149 μm
[7] = Particle Diameter (Lower) 2.011 μm
[8] = Particle Diameter (Lower) 3.519 μm
[9] = Particle Diameter (Lower) 6.158 μm
[10] = Particle Diameter (Lower) 10.78 μm
[11] = Particle Diameter (Lower) 18.86 μm
[12] = Particle Diameter (Lower) 33.01 μm
[13] = Particle Diameter (Lower) 57.77 μm
[14] = Particle Diameter (Lower) 101.1 μm
[15] = Particle Diameter (Lower) 176.9 μm
[16] = Particle Diameter (Lower) 309.6 μm
[17] = Particle Diameter (Lower) 541.9 μm
[18] = Particle Diameter (Lower) 948.3 μm
[19] = Particle Diameter (Lower) 1660 μm

SMILES	Cum. < Volume % [3, 4] [%]	Diff. Volume % [3, 4] [%]	Cum. < Volume % [3, 5] [%]	Diff. Volume % [3, 5] [%]	Cum. < Volume % [3, 6] [%]	Diff. Volume % [3, 6] [%]	Cum. < Volume % [3, 7] [%]	Diff. Volume % [3, 7] [%]	Cum. < Volume % [3, 8] [%]	Diff. Volume % [3, 8] [%]	Cum. < Volume % [3, 9] [%]	Diff. Volume % [3, 9] [%]	Cum. < Volume % [3, 10] [%]	Diff. Volume % [3, 10] [%]	Diff. Volume % [3, 11] [%]	Cum. < Volume % [3, 12] [%]	Diff. Volume % [3, 12] [%]	Cum. < Volume % [3, 13] [%]	Diff. Volume % [3, 13] [%]	Cum. < Volume % [3, 14] [%]	other results
O.O.O=C([O-])CCNC(=O)c1ccc(/N=N/c2ccc(O)c(C(=O)[O-])c2)cc1.[Na+].[Na+] [Balsalazide disodium, (E)-5-[[-4-[[(2-carboxyethyl)amino]carbonyl]phenyl]azo]-2-hydroxybenzoic acid, disodium salt, dihydrate]	–	–	–	–	–	–	–	–	–	–	–	–	–	–	–	–	–	–	–	–	Solubility ([1]; in all other organic solvents): practically insoluble; Solubility ([1]; in ethanol): sparingly soluble; Solubility ([1]; in isotonic saline): freely soluble; Solubility ([1]; in methanol): sparingly soluble; Solubility ([1]; in water): freely soluble; Time the preparation is stable ([2]; stock standard preparation 0.175 mg/mL in dissolution medium): 4 days; Time the preparation is stable ([2]; working standard preparation 0.0175 mg/mL in dissolution medium): 4 days
O=C(O)CCNC(=O)c1ccc(/N=N/c2ccc(O)c(C(=O)O)c2)cc1 [Feed Powder Sample C (#53.$02)]	0	1.96	1.96	4.37	6.33	6.03	12.4	11.3	23.7	20.6	44.2	26.7	70.9	20.7	7.30	98.9	1.07	99.99	0.013	100	Diff. Volume % [3, 14]: 0%; Cum. < Volume % [3, 15]: 100%; Diff. Volume % [3, 15]: 0%
O=C([O-])CCNC(=O)c1ccc(/N=N/c2ccc(O)c(C(=O)[O-])c2)cc1.[Na+].[Na+] [Sample 3]	0	2.13	2.13	4.92	7.05	6.97	14.0	12.1	26.1	20.4	46.4	25.7	72.2	19.8	7.20	99.2	0.79	99.997	0.0029	100	Particle size, % < 10 [3]: 1.498 μm; Particle size, % < 25 [3]: 3.385 μm; Particle size, % < 50 [3]: 6.679 μm; Particle size, % < 75 [3]: 11.50 μm; Particle size, % < 100 [3]: 63.41 μm; Cum. < Volume % [3, 11]: 92.0%; Diff. Volume % [3, 14]: 0%; Cum. < Volume % [3, 15]: 100%; Diff. Volume % [3, 15]: 0%; Cum. < Volume % [3, 16]: 100%; Diff. Volume % [3, 16]: 0%; Cum. < Volume % [3, 17]: 100%; Diff. Volume % [3, 17]: 0%; Cum. < Volume % [3, 18]: 100%; Diff. Volume % [3, 18]: 0%; Cum. < Volume % [3, 19]: 100%; Diff. Volume % [3, 19]: 0%; Mean particle size (volume statistics, arithmetic) [3]: 8.399 μm; Median particle size (volume statistics, arithmetic) [3]: 6.679 μm; Specific Surf. Area [3]: 16802 cm^2/mL
O=C(O)CCNC(=O)c1ccc(/N=N/c2ccc(O)c(C(=O)O)c2)cc1 [Feed Powder Sample A (#35.$01)]	0	1.82	1.82	3.88	5.70	4.90	10.6	9.30	19.9	18.4	38.3	25.7	63.9	21.8	10.2	95.9	3.32	99.3	0.75	100	Particle size, % < 10 [3]: 1.899 μm; Particle size, % < 25 [3]: 4.253 μm; Particle size, % < 50 [3]: 8.031 μm; Particle size, % < 75 [3]: 13.88 μm; Particle size, % < 100 [3]: 83.89 μm; Cum. < Volume % [3, 11]: 85.7%; Diff. Volume % [3, 14]: 0%; Cum. < Volume % [3, 15]: 100%; Diff. Volume % [3, 15]: 0%; Cum. < Volume % [3, 16]: 100%; Mean particle size (volume statistics, arithmetic) [3]: 10.85 μm; Median particle size (volume statistics, arithmetic) [3]: 8.031 μm; Specific Surf. Area [3]: 14230 cm^2/mL
